Experimental data: the NIST ThermoML archive (doi:10.1021/je100508y)
Numbers after ± are expanded uncertainties.

Tests used:
[1] = refractive index (Na D-line) (dimensionless); settings: 298.15 K; 101.33 kPa; Liquid; Standard Abbe refractometry
[2] = 298.15 K; 101.33 kPa; Liquid

refractive index [1]	mass density [2]	SMILES
1.4791 ± 0.0007	1237.23 ± 1.8 kg/m3	CCOS(=O)(=O)[O-].CCn1cc[n+](C)c1 [1-ethyl-3-methylimidazolium ethyl sulfate]
1.49774 ± 0.00068	873.57 ± 0.17 kg/m3	c1ccccc1 [benzene]
1.4236 ± 0.00068	773.8 ± 0.25 kg/m3	C1CCCCC1 [cyclohexane]
1.45598 ± 0.0007	831.47 ± 0.73 kg/m3	C1CCCCCCC1 [cyclooctane]
1.42062 ± 0.00068	765.02 ± 0.25 kg/m3	CC1CCCCC1 [methylcyclohexane]
